Test results taken from article PMC6979384, “Characterization of the plant homeodomain (PHD) reader family for their histone tail interactions” (Epigenetics & Chromatin, 2020).

Experiments:
Assay in all cases: Histone peptide microarray
Format in all cases: binding, human
KDM5B (3) = details: GST-tagged KDM5B (3); histone peptide array; arrays performed twice, n of 4
How it was run: (§1)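 Mean ± SD of 4 replicate array intensities; GST-PHD finger at 0.5 μM against 293 PTM-bearing histone peptides.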

ING3 = details: GST-tagged ING3; histone peptide array; arrays performed twice, n of 4
How it was run: as §1

TAF3 = details: GST-tagged TAF3; histone peptide array; arrays performed twice, n of 4
How it was run: as §1

KDM5A (3) = details: GST-tagged KDM5A (3); histone peptide array; arrays performed twice, n of 4
How it was run: as §1

DIDO1 = details: GST-tagged DIDO1; histone peptide array; arrays performed twice, n of 4
How it was run: as §1

ING4 = details: GST-tagged ING4; histone peptide array; arrays performed twice, n of 4
How it was run: as §1

DPF2 (PPC2W2) = details: GST-tagged DPF2 (PPC2W2 = Dual PHD + C2W2-type Zn-finger); histone peptide array; arrays performed twice, n of 4
How it was run: as §1

MORC3 (CW) = details: GST-tagged MORC3 (CW = CW-type Zn-finger); histone peptide array; arrays performed twice, n of 4
How it was run: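 GST-tagged PHD finger readers were expressed, purified and applied at 0.5 μM to a microarray of 293 synthetic histone peptides carrying single or combinatorial PTMs, using an optimized protocol. Binding signals are averages with standard deviation from 4 replicates.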

SP140L = details: GST-tagged SP140L; histone peptide array; arrays performed twice, n of 4
How it was run: as §1

BPTF (PB) = details: GST-tagged BPTF (PB = PHD + Bromodomain); histone peptide array; arrays performed twice, n of 4
How it was run: as §1

KDM4C (TTP) = details: GST-tagged KDM4C (TTP = Tandem Tudor domain + PHD); histone peptide array; arrays performed twice, n of 4
How it was run: as §1

AIRE (PP) = details: GST-tagged AIRE (PP); histone peptide array; arrays performed twice, n of 4
How it was run: as §1

ING2 = details: GST-tagged ING2; histone peptide array; arrays performed twice, n of 4
How it was run: as §1

PHF23 = details: GST-tagged PHF23; histone peptide array; arrays performed twice, n of 4
How it was run: as §1

CHD5 (PCC) = details: GST-tagged CHD5 (PCC = PHD + Dual Chromodomain); histone peptide array; arrays performed twice, n of 4
How it was run: as §1

MLL5 = details: GST-tagged MLL5; histone peptide array; arrays performed twice, n of 4
How it was run: as §1

ING1 = details: GST-tagged ING1; histone peptide array; arrays performed twice, n of 4
How it was run: as §1

KDM5A (1) = details: GST-tagged KDM5A (1); histone peptide array; arrays performed twice, n of 4
How it was run: as §1

PHRF1 (RP) = details: GST-tagged PHRF1 (RP); histone peptide array; arrays performed twice, n of 4
How it was run: as §1

TRIM66 (PB) = details: GST-tagged TRIM66 (PB = PHD + Bromodomain); histone peptide array; arrays performed twice, n of 4
How it was run: as §1

CHD5 (PPCC) = details: GST-tagged CHD5 (PPCC = Dual PHD + Dual Chromodomain); histone peptide array; arrays performed twice, n of 4
How it was run: as §1

RAG2 = details: GST-tagged RAG2; histone peptide array; arrays performed twice, n of 4
How it was run: as §1

PHF13 = details: GST-tagged PHF13; histone peptide array; arrays performed twice, n of 4
How it was run: as §1

CHD4 (PPCC) = details: GST-tagged CHD4 (PPCC = Dual PHD + Dual Chromodomain); histone peptide array; arrays performed twice, n of 4
How it was run: as §1

PHF2 = details: GST-tagged PHF2; histone peptide array; arrays performed twice, n of 4
How it was run: as §1

BAZ2B = details: GST-tagged BAZ2B; histone peptide array; arrays performed twice, n of 4
How it was run: as §1

KDM5B (1) = details: GST-tagged KDM5B (1); histone peptide array; arrays performed twice, n of 4
How it was run: as §1

ING5 = details: GST-tagged ING5; histone peptide array; arrays performed twice, n of 4
How it was run: as §1

PHF21A = details: GST-tagged PHF21A; histone peptide array; arrays performed twice, n of 4
How it was run: as §1

PHF8 = details: GST-tagged PHF8; histone peptide array; arrays performed twice, n of 4
How it was run: as §1

KDM7A = details: GST-tagged KDM7A; histone peptide array; arrays performed twice, n of 4
How it was run: as §1

| Substance | Array Heatmap signal, KDM5B (3) (KDM5B (3)) | Array Heatmap signal, ING3 (ING3) | Array Heatmap signal, TAF3 (TAF3) | Array Heatmap signal, KDM5A (3) (KDM5A (3)) | Array Heatmap signal, DIDO1 (DIDO1) | Array Heatmap signal, ING4 (ING4) | Array Heatmap signal, DPF2 (PPC2W2) (DPF2 (PPC2W2)) | Array Heatmap signal, MORC3 (CW) (MORC3 (CW)) | Array Heatmap signal, SP140L (SP140L) | Array Heatmap signal, BPTF (PB) (BPTF (PB)) | Array Heatmap signal, KDM4C (TTP) (KDM4C (TTP)) | Array Heatmap signal, AIRE (PP) (AIRE (PP)) | Array Heatmap signal, ING2 (ING2) | Array Heatmap signal, PHF23 (PHF23) | Array Heatmap signal, CHD5 (PCC) (CHD5 (PCC)) | Array Heatmap signal, MLL5 (MLL5) | Array Heatmap signal, ING1 (ING1) | Array Heatmap signal, KDM5A (1) (KDM5A (1)) | Array Heatmap signal, PHRF1 (RP) (PHRF1 (RP)) | Array Heatmap signal, TRIM66 (PB) (TRIM66 (PB)) | also measured |
| --- | --- | --- | --- | --- | --- | --- | --- | --- | --- | --- | --- | --- | --- | --- | --- | --- | --- | --- | --- | --- | --- |
| H3R2me1 + K4me3: H3 1-20 | 0.6417 | 0.5249 | 0.4375 | 0.7567 | 0.7532 | 0.4768 | 0.645 | 0.559 | 0.3558 | 0.4045 | 0.6626 | 0.5251 | 0.6934 | 0.6587 | 0.789 | 0.6848 | 0.6223 | 0.4891 | 0.4461 | 0.573 | Array Heatmap signal, CHD5 (PPCC) (CHD5 (PPCC)): 0.5498; Array Heatmap signal, RAG2 (RAG2): 0.5131; Array Heatmap signal, PHF13 (PHF13): 0.6851; Array Heatmap signal, CHD4 (PPCC) (CHD4 (PPCC)): 0.5344; Array Heatmap signal, PHF2 (PHF2): 0.6232; Array Heatmap signal, BAZ2B (BAZ2B): 0.4816; Array Heatmap signal, KDM5B (1) (KDM5B (1)): 0.7101; Array Heatmap signal, ING5 (ING5): 0.3615; Array Heatmap signal, PHF21A (PHF21A): 0.4726; Array Heatmap signal, PHF8 (PHF8): 0.5511; Array Heatmap signal, KDM7A (KDM7A): 0.6442 |
| H3R2me2a + K4ac + K9ac + K14ac + K18ac: H3 1-20 | 0.4924 | 0.5009 | 0.2624 | 0.405 | 0.6585 | 0.4485 | 0.6307 | 0.3697 | 0.3281 | 0.3551 | 0.4988 | 0.481 | 0.5976 | 0.5405 | 0.8359 | 0.5333 | 0.488 | 0.4917 | 0.4078 | 0.5934 | Array Heatmap signal, CHD5 (PPCC) (CHD5 (PPCC)): 0.5571; Array Heatmap signal, RAG2 (RAG2): 0.259; Array Heatmap signal, PHF13 (PHF13): 0.6029; Array Heatmap signal, CHD4 (PPCC) (CHD4 (PPCC)): 0.5562; Array Heatmap signal, PHF2 (PHF2): 0.4783; Array Heatmap signal, BAZ2B (BAZ2B): 0.5184; Array Heatmap signal, KDM5B (1) (KDM5B (1)): 0.6453; Array Heatmap signal, ING5 (ING5): 0.3422; Array Heatmap signal, PHF21A (PHF21A): 0.4733; Array Heatmap signal, PHF8 (PHF8): 0.3535; Array Heatmap signal, KDM7A (KDM7A): 0.4047 |
